Reference: patent publication US6794169B2, “UDP-N-acetylglucosamine: galactose-β1,3-N-acetylgalactosamine-α-R / (GlcNAc to GalNAc) β1,6-N-acetylglucosaminyltransferase, C2GnT3” (Glycozym ApS, priority 1999, dated 2004)

Key:
C2GnT1 = biological target: T1, C2GnT1 (Homo sapiens, UniProt Q02742); test: GlcNAc-transferase activity of C2GnT1 with acceptor substrates; format: biochemical
T1 sequence (Q02742 1-428): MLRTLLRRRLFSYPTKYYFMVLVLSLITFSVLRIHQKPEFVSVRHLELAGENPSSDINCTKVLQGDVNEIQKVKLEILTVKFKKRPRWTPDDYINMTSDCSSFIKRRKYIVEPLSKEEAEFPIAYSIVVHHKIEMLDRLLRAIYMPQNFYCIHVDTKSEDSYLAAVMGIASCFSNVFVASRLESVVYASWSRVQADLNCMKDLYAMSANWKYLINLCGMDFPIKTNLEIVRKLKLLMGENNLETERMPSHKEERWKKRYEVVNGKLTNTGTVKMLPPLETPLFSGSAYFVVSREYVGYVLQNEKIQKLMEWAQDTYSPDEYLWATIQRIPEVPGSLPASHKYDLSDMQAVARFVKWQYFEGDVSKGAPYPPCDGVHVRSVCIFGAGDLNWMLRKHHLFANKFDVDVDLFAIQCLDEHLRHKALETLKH
Method: (§1) Controls included the pAcGP67-GalNAc-T3-sol (24). The kinetic properties were determined with partially purified enzymes expressed in High Five™ cells. Partial purification was performed by consecutive chromatography on Amberlite IRA-95, DEAE-Sephacryl and SP-Sepharose essentially as described (25; 25).
(§2) Standard assays were performed using culture supernatant from infected cells in 50 μl reaction mixtures containing 100 mM MES (pH 6.5), 0.1% Nonidet P-40, 150 μM UDP-[^14C]-GlcNAc (2,000 cpm/nmol) (Amersham Pharmacia Biotech), and the indicated concentrations of acceptor substrates (Sigma and Toronto Research Laboratories Ltd., see Table I for structures). Reaction products were quantified by chromatography on Dowex AG1-X8.

C2GnT3 = biological target: T2, C2GnT3 (Homo sapiens, UniProt Q9P109); test: GlcNAc-transferase activity of recombinant soluble C2GnT3 with acceptor/donor substrates; format: biochemical; details: for Substrate specificity, C2GnT3 activity: partially purified media of infected High Five cells, background subtracted; for C2GnT3 activity with acceptor substrate (in words): as acceptor substrate; for C2GnT3 activity with donor substrate (in words): as donor substrate, data not shown
T2 construct: An expression vector construct designed to encode amino acid residues 39-453 of C2GnT3; gp67 secretion signal of vector pAcGP67A (N); made in house; host or cells: Sf9 insect cells (baculovirus; culture supernatant); High Five cells for kinetic properties (partially purified)
T2 sequence (Q9P109 39-453): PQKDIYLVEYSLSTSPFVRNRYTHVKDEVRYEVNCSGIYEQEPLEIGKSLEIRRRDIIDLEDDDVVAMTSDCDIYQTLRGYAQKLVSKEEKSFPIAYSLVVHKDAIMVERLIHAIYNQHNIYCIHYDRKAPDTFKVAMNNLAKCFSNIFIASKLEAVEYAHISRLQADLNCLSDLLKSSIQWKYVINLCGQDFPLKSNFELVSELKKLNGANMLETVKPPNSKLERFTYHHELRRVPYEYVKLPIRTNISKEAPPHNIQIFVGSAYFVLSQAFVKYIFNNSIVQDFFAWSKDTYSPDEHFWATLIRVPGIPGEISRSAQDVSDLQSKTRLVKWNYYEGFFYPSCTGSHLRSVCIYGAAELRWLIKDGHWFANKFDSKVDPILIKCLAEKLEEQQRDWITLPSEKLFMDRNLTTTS
Description: with BamH1 and EcoRI restriction sites, respectively (FIG. 2). The PCR product was cloned between the BamHI and EcoRI sites of pAcGP67A (PharMingen), and the insert was fully sequenced. pAcGP67-C2GnT3-sol was co-transfected with Baculo-Gold™ DNA (PharMingen) as described previously (23). Recombinant Baculovirus was obtained after two successive amplifications in Sf9 cells grown in serum-containing medium, and titers of virus were estimated by titration in 24-well plates with monitoring of enzyme activities.
as §1, §2

Row | SMILES | Substrate specificity, C2GnT1 activity (C2GnT1; acceptor substrate 2 mM) | Substrate specificity, C2GnT1 activity (C2GnT1; acceptor substrate 10 mM) | Substrate specificity, C2GnT3 activity (C2GnT3; acceptor substrate 2 mM) | Substrate specificity, C2GnT3 activity (C2GnT3; acceptor substrate 10 mM) | C2GnT3 activity with acceptor substrate (in words) (C2GnT3) | C2GnT3 activity with donor substrate (in words) (C2GnT3) | Substrate inhibition of C2GnT3 enzyme activity (C2GnT3; high acceptor concentrations up to 20 mM)
1 | CC(=O)N[C@H]1C(O)O[C@H](CO)[C@H](O)[C@@H]1O (stereo partly drawn) [D-GalNAc] | <0.1 nmol/h/mg | <0.1 nmol/h/mg | <0.1 nmol/h/mg | <0.1 nmol/h/mg | – | – | –
2 | CC(=O)N[C@H]1[C@@H](OP(=O)(O)OP(=O)(O)OC[C@H]2O[C@@H](n3ccc(=O)[nH]c3=O)[C@H](O)[C@@H]2O)O[C@H](CO)[C@@H](O)[C@@H]1O [UDP-GlcNAc, UDP-N-acetylglucosamine] | – | – | – | – | – | strict donor substrate specificity | –
3 | CC(=O)N[C@H]1[C@@H](Oc2ccc([N+](=O)[O-])cc2)O[C@H](CO)[C@H](O)[C@@H]1O [α-D-GalNAc-1-p-Nph] | <0.1 nmol/h/mg | <0.1 nmol/h/mg | <0.1 nmol/h/mg | <0.1 nmol/h/mg | no activity | – | –
4 | CC(=O)N[C@@H]1[C@@H](O[C@@H]2O[C@H](CO)[C@H](O)[C@H](O)[C@H]2O)[C@@H](O)[C@@H](CO)O[C@@H]1O [β-D-Gal-(1-3)-α-D-GalNAc] | 9.6 nmol/h/mg | 19.0 nmol/h/mg | 6.6 nmol/h/mg | 14.3 nmol/h/mg | – | – | –
5 | CC(=O)NC1C(OC2C(O)C(CO)OC(Oc3ccc([N+](=O)[O-])cc3)C2NC(C)=O)OC(CO)C(O)C1O [β-D-GlcNAc-(1-3)-α-D-GalNAc-1-p-Nph] | <0.1 nmol/h/mg | <0.1 nmol/h/mg | <0.1 nmol/h/mg | <0.1 nmol/h/mg | – | – | –

The next lines start with the values.

Row | Substrate specificity, C2GnT1 activity (C2GnT1; acceptor substrate 2 mM) | Substrate specificity, C2GnT1 activity (C2GnT1; acceptor substrate 10 mM) | Substrate specificity, C2GnT3 activity (C2GnT3; acceptor substrate 2 mM) | Substrate specificity, C2GnT3 activity (C2GnT3; acceptor substrate 10 mM) | C2GnT3 activity with acceptor substrate (in words) (C2GnT3) | C2GnT3 activity with donor substrate (in words) (C2GnT3) | Substrate inhibition of C2GnT3 enzyme activity (C2GnT3; high acceptor concentrations up to 20 mM) | SMILES
6 | <0.1 nmol/h/mg | <0.1 nmol/h/mg | <0.1 nmol/h/mg | <0.1 nmol/h/mg | no activity | – | – | CC(=O)N[C@H]1[C@H](O[C@H]2[C@@H](O)[C@@H](CO)O[C@@H](O[C@H]3[C@H](O)[C@@H](O)C(O)O[C@@H]3CO)[C@@H]2O)O[C@H](CO)[C@@H](O[C@@H]2O[C@H](CO)[C@H](O)[C@H](O)[C@H]2O)[C@@H]1O (mixture of isomers) [lacto-N-neo-tetraose]
7 | – | – | – | – | – | no activity | – | CC(=O)N[C@H]1[C@@H](OP(=O)(O)OP(=O)(O)OC[C@H]2O[C@@H](n3ccc(=O)[nH]c3=O)[C@H](O)[C@@H]2O)O[C@H](CO)[C@H](O)[C@@H]1O [UDP-GalNAc]
8 | 16.2 nmol/h/mg | 23.6 nmol/h/mg | 18.1 nmol/h/mg | 26.1 nmol/h/mg | – | – | No substrate inhibition | CC(=O)N[C@H]1[C@@H](Oc2ccc([N+](=O)[O-])cc2)O[C@H](CO)[C@H](O)[C@@H]1O[C@@H]1O[C@H](CO)[C@H](O)[C@H](O)[C@H]1O [β-D-Gal-(1-3)-α-D-GalNAc-1-p-Nph]
9 | <0.1 nmol/h/mg | <0.1 nmol/h/mg | <0.1 nmol/h/mg | <0.1 nmol/h/mg | no activity | – | – | CO[C@@H]1O[C@H](CO)[C@H](O)[C@H](O[C@@H]2O[C@H](CO)[C@@H](O)[C@H](O)[C@H]2NC(C)=O)[C@H]1O [β-D-GlcNAc-(1-3)-β-D-Gal-1-Me]
